# Molecular target: T1, CDK9/CyclinT1 (Homo sapiens, UniProt P50750)
# T1 construct: purchased ProQinase/Reaction Biology, USA #0371-0345-1
# Test: CDK9/T1 ADPGlo kinase assay
# Assay type: biochemical
# Settings: CDK9/CyclinT1 6 nM, ATP 10 microM, PDKtide 40 microM, 120 min RT
# Description: The testing compound was evaluated in 12 concentrations in a 1:3 dilution series, starting from 5microM as the highest concentration.
# In a white 384 microplate (Greiner bio-one, Austria #784904,) with 2 microL of 3-fold concentrated CDK9/CyclinT1 (ProQinase/Reaction Biology, USA #0371-0345-1, LOT.: 012), final concentration (f.c.) 6 nM, in 1×kinase buffer, 2 microL of compound (3× fold concentrated in f.c. 1.66% DMSO/H2O) was added and incubated at Room Temperature (RT) for 10 min. Then 2 microL of Substrate/ATP-Mix (3×PDKtide f.c. 40 microM, SignalChem Biotech, Canada via Biozol, Eching, Germany #P10-58, LOT.: L2230-7 and 3×UltraPure ATP f.c. 10 microM (ADP Glo Kinase assay, Promega GmbH, Germany #V9102)) were added, mixed and incubated for 120 min at RT.
# After incubation time, 5 microL of ADP Glo reagent (ready to use, ADP Glo Kinase assay, Promega GmbH, Germany #V9102) were added, mixed and incubated for 40 min at RT.
# In the last step, 10 microL of ADP Glo Detection reagent (ready to use, ADP Glo Kinase assay, Promega GmbH, Germany #V9102) were added, mixed and incubated for 30 min at RT.
# GloMax Discover GM3000 Reader (Promega GmbH, Germany 9700000249) was used for the readout.
# The inhibitor concentration was plotted against the luminescence to determine the IC50 using XLFit 5.5 (IDBS, Guildford) to fit to a sigmoidal dose response curve with a variable slope.
# T1 sequence (P50750 whole entry): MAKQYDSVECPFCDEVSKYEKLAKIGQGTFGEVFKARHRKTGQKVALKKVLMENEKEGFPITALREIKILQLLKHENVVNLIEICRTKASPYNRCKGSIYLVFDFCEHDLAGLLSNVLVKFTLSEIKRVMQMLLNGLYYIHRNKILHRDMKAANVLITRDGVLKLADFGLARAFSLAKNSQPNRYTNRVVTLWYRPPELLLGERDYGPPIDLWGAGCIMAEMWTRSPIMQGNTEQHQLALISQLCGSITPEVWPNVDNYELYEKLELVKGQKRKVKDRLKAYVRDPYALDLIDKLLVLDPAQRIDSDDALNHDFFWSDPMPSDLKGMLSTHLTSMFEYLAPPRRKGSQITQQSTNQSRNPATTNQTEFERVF
# T1 sequence (O60563 whole entry partner): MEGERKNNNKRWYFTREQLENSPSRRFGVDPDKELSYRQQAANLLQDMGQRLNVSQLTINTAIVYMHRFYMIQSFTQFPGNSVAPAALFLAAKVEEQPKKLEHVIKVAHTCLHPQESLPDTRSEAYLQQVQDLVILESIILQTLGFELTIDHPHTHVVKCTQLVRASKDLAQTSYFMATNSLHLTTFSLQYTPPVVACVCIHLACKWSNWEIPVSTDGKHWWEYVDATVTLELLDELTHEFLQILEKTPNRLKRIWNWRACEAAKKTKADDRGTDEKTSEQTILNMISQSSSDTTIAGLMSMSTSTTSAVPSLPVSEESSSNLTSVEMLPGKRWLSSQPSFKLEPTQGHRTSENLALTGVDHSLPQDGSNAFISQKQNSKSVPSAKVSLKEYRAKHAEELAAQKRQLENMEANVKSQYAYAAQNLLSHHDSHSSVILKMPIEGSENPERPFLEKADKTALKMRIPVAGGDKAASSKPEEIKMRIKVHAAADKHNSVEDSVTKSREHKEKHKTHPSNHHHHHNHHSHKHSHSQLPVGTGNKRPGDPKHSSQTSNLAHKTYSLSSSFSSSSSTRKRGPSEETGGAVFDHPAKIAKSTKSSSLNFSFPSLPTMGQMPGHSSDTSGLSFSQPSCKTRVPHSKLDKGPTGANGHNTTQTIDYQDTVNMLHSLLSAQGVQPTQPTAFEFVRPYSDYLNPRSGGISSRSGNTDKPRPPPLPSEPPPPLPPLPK
row,SMILES,IC50 [nM]
1,"Cc1cc(C)c(CNc2nc(-c3c(F)cccc3F)nc3c(Cl)cnn23)cn1 [Example #145, 8-chloro-2-(2,6-difluorophenyl)-N-((4,6-dimethylpyridin-3-yl)methyl)pyrazolo[1,5-a][1,3,5]triazin-4-amine]",< 20
2,"O=C(NC1CCOCC1)c1ccc(Nc2nc(-c3c(F)cccc3F)nc3ccnn23)cc1 [Example #29, 4-((2-(2,6-difluorophenyl)pyrazolo[1,5-a][1,3,5]triazin-4-yl)amino)-N-(tetrahydro-2H-pyran-4-yl)benzamide]",< 1000
3,"CC(C)(C)N1CCN(c2ccc(Nc3nc(-c4c(F)cccc4F)nc4ccnn34)cc2)CC1 [Example #45, N-(4-(4-(tert-butyl)piperazin-1-yl)phenyl)-2-(2,6-difluorophenyl)pyrazolo[1,5-a][1,3,5]triazin-4-amine]",< 200
4,"N#Cc1cc(Nc2nc(-c3c(F)cccc3F)nc3ccnn23)ccc1N1CCOCC1 [Example #42, 5-((2-(2,6-difluorophenyl)pyrazolo[1,5-a][1,3,5]triazin-4-yl)amino)-2-morpholinobenzonitrile]",< 1000
5,"CC(C)(C)NC(=O)c1ccc(Nc2nc(-c3c(F)cccc3Cl)nc3ccnn23)cc1 [Example #23, N-(tert-butyl)-4-((2-(2-chloro-6-fluorophenyl)pyrazolo[1,5-a][1,3,5]triazin-4-yl)amino)benzamide]",< 1000
6,"CCOc1cc(Nc2nc(-c3c(F)cccc3F)nc3ccnn23)ccc1C1=CCN(C)CC1 [Example #14, 2-(2,6-difluorophenyl)-N-(3-ethoxy-4-(1-methyl-1,2,3,6-tetrahydropyridin-4-yl)phenyl)pyrazolo[1,5-a][1,3,5]triazin-4-amine]",< 1000
7,"CC(C)(C)NC(=O)c1ccc(Nc2nc(-c3c(F)cccc3F)nc3ccnn23)cc1 [Example #27, N-(tert-butyl)-4-((2-(2,6-difluorophenyl)pyrazolo[1,5-a][1,3,5]triazin-4-yl)amino)benzamide]",< 1000
8,"CCOc1cc(Nc2nc(-c3c(F)cccc3Cl)nc3ccnn23)ccc1C1=CCN(C)CC1 [Example #16, 2-(2-chloro-6-fluorophenyl)-N-(3-ethoxy-4-(1-methyl-1,2,3,6-tetrahydropyridin-4-yl)phenyl)pyrazolo[1,5-a][1,3,5]triazin-4-amine]",< 1000
9,"CCOc1cc(Nc2nc(-c3c(F)cccc3F)nc3ccnn23)ccc1C1CCN(C)CC1 [Example #20, 2-(2,6-difluorophenyl)-N-(3-ethoxy-4-(1-methylpiperidin-4-yl)phenyl)pyrazolo[1,5-a][1,3,5]triazin-4-amine]",< 1000
10,"CN1CCN(C2CCN(c3ccc(Nc4nc(-c5ccccc5F)nc5ccnn45)cc3)CC2)CC1 [Example #59, 2-(2-fluorophenyl)-N-(4-(4-(4-methylpiperazin-1-yl)piperidin-1-yl)phenyl)pyrazolo[1,5-a][1,3,5]triazin-4-amine]",< 1000
11,"Fc1cccc(F)c1-c1nc(Nc2ccc(N3CCC(N4CCOCC4)CC3)cc2)n2nccc2n1 [Example #43, 2-(2,6-difluorophenyl)-N-(4-(4-morpholinopiperidin-1-yl)phenyl)pyrazolo[1,5-a][1,3,5]triazin-4-amine]",< 1000
12,"CC(C)(C#N)n1cc(Nc2nc(-c3c(F)cccc3Cl)nc3ccnn23)cn1 [Example #36, 2-(4-((2-(2-chloro-6-fluorophenyl)pyrazolo[1,5-a][1,3,5]triazin-4-yl)amino)-1H-pyrazol-1-yl)-2-methylpropanenitrile]",< 1000
13,"CCNC(=O)c1ccc(Nc2nc(-c3c(F)cccc3Cl)nc3ccnn23)cc1 [Example #24, 4-((2-(2-chloro-6-fluorophenyl)pyrazolo[1,5-a][1,3,5]triazin-4-yl)amino)-N-ethylbenzamide]",< 1000
14,"CCOc1cc(Nc2nc(-c3c(F)cccc3F)nc3ccnn23)ccc1N1CCN(C)CC1 [Example #8, 2-(2,6-difluorophenyl)-N-(3-ethoxy-4-(4-methylpiperazin-1-yl)phenyl)pyrazolo[1,5-a][1,3,5]triazin-4-amine]",< 1000

# Second part, the compound after the results:
row,IC50 [nM],SMILES
1,< 200,"Fc1cccc(F)c1-c1nc(Nc2cnn(C3CCN(C4CCOCC4)CC3)c2)n2ncc(Br)c2n1 [Example #94, 8-bromo-2-(2,6-difluorophenyl)-N-(1-(1-(tetrahydro-2H-pyran-4-yl)piperidin-4-yl)-1H-pyrazol-4-yl)pyrazolo[1,5-a][1,3,5]triazin-4-amine]"
2,< 20,"CN1CCC(Nc2nc(-c3c(F)cccc3F)nc3c(Cl)cnn23)CC1 [Example #141, 8-chloro-2-(2,6-difluorophenyl)-N-(1-methylpiperidin-4-yl)pyrazolo[1,5-a][1,3,5]triazin-4-amine]"
3,< 200,"Fc1cccc(F)c1-c1nc(Nc2cnn([C@H]3CC[C@H](N4CCOCC4)CC3)c2)n2nccc2n1 [Example #68, 2-(2,6-difluorophenyl)-N-(1-((1r,4r)-4-morpholinocyclohexyl)-1H-pyrazol-4-yl)pyrazolo[1,5-a][1,3,5]triazin-4-amine]"
4,< 20,"OCCN[C@H]1CC[C@H](Nc2nc(-c3c(F)cccc3F)nc3c(Cl)cnn23)CC1 [Example #127, 2-(((1r,4r)-4-((8-chloro-2-(2,6-difluorophenyl)pyrazolo[1,5-a][1,3,5]triazin-4-yl)amino)cyclohexyl)amino)ethan-1-ol]"
5,< 1000,"COc1cc(Nc2nc(-c3c(F)cccc3F)nc3ccnn23)ccc1N1CCC(N2CCN(C)CC2)CC1 [Example #62, 2-(2,6-difluorophenyl)-N-(3-methoxy-4-(4-(4-methylpiperazin-1-yl)piperidin-1-yl)phenyl)pyrazolo[1,5-a][1,3,5]triazin-4-amine]"
6,< 200,"Fc1cccc(F)c1-c1nc(Nc2cnn(C3CCNCC3)c2)n2nccc2n1 [Example #74, 2-(2,6-difluorophenyl)-N-(1-(piperidin-4-yl)-1H-pyrazol-4-yl)pyrazolo[1,5-a][1,3,5]triazin-4-amine]"
7,< 20,"N[C@@H]1CC[C@@H](Nc2nc(-c3c(F)cccc3F)nc3c(Cl)cnn23)C1 [Example #116, (1R,3R)-N1-(8-chloro-2-(2,6-difluorophenyl)pyrazolo[1,5-a][1,3,5]triazin-4-yl)cyclopentane-1,3-diamine]"
8,< 20,"Fc1cccc(Cl)c1-c1nc(Nc2cnn(C3CCN(C4CCOCC4)CC3)c2)n2ncc(Cl)c2n1 [Example #101, 8-chloro-2-(2-chloro-6-fluorophenyl)-N-(1-(1-(tetrahydro-2H-pyran-4-yl)piperidin-4-yl)-1H-pyrazol-4-yl)pyrazolo[1,5-a][1,3,5]triazin-4-amine]"
9,< 200,"Cc1cnn2c(Nc3cnn(C4CCN(C5CCOCC5)CC4)c3)nc(-c3c(F)cccc3F)nc12 [Example #77, 2-(2,6-difluorophenyl)-8-methyl-N-(1-(1-(tetrahydro-2H-pyran-4-yl)piperidin-4-yl)-1H-pyrazol-4-yl)pyrazolo[1,5-a][1,3,5]triazin-4-amine]"
10,< 200,"Cc1cc(F)c(-c2nc(NC3CCC(N(C)C)CC3)n3ncc(Cl)c3n2)c(F)c1 (stereo not drawn) [Example #132, (1r,4r)-N1-(8-chloro-2-(2,6-difluoro-4-methylphenyl)pyrazolo[1,5-a][1,3,5]triazin-4-yl)-N4,N4-dimethylcyclohexane-1,4-diamine]"
11,< 20,"Fc1cccc(F)c1-c1nc(NCc2cccnc2)n2ncc(Cl)c2n1 [Example #146, 8-chloro-2-(2,6-difluorophenyl)-N-(pyridin-3-ylmethyl)pyrazolo[1,5-a][1,3,5]triazin-4-amine]"
12,< 20,"NC1CCC(Nc2nc(-c3c(F)cccc3F)nc3c(Cl)cnn23)C1 (stereo not drawn) [Example #117, N1-(8-chloro-2-(2,6-difluorophenyl)pyrazolo[1,5-a][1,3,5]triazin-4-yl)cyclopentane-1,3-diamine]"
13,< 1000,"COC(=O)N1CCC(n2cc(Nc3nc(-c4c(F)cccc4F)nc4ccnn34)cn2)CC1 [Example #82, methyl-4-(4-((2-(2,6-difluorophenyl)pyrazolo[1,5-a][1,3,5]triazin-4-yl)amino)-1H-pyrazol-1-yl)piperidine-1-carboxylate]"
14,< 1000,"Cn1cc(Nc2nc(-c3c(F)cccc3F)nc3c(C(F)(F)F)cnn23)cn1 [Example #115, 2-(2,6-difluorophenyl)-N-(1-methyl-1H-pyrazol-4-yl)-8-(trifluoromethyl)pyrazolo[1,5-a][1,3,5]triazin-4-amine]"
15,< 20,"CN(CCO)C1CCC(Nc2nc(-c3c(F)cccc3F)nc3c(Cl)cnn23)CC1 (stereo not drawn) [Example #133, 2-(((1r,4r)-4-((8-chloro-2-(2,6-difluorophenyl)pyrazolo[1,5-a][1,3,5]triazin-4-yl)amino)cyclohexyl)(methyl)amino)ethan-1-ol]"
16,< 20,"CN(CCCF)[C@H]1CC[C@H](Nc2nc(-c3c(F)cccc3F)nc3c(Cl)cnn23)CC1 [Example #135, (1r,4r)-N1-(8-chloro-2-(2,6-difluorophenyl)pyrazolo[1,5-a][1,3,5]triazin-4-yl)-N4-(3-fluoropropyl)-N4-methylcyclohexane-1,4-diamine]"

# From US20250019382A1, “NOVEL INHIBITORS OF CYCLIN-DEPENDENT KINASES” (Origenis Gmbh, priority 2021, published 2025)
